Measured values: patent US20250108088A1, “REGENERATIVE PEPTIDES AND METHODS FOR USE THEREOF” (priority 2023, published 2025)

Tested on: Normal human dermal fibroblasts (HNDF)
Assay: Myofibroblast transition assay (MFT), aSMA immunofluorescence
Type: cell-based
Conditions: N = 3; for Myofibroblast transition (MFT), aSMA/cell, % change relative to control: TGF-Beta induced HNDF, control of no peptide; for MFT, Representative value from experiments (% change relative to control): most effective significant concentration of 10, 100, 1000 ng/ml
Description: The myofibroblast transition (MFT) assay determines the effect of the peptide on inhibiting the transition of fibroblasts to myofibroblasts. The extracellular matrix produced by myofibroblasts may be produced in excess and may not be remodeled during tissue healing, leaving behind the fibrous connective tissue that forms a scar. Thus, the ability to regulate the degree of MFT may enable control of scarring. To determine if the peptides provided herein affect MFT, the following assay was performed.
Normal human dermal fibroblasts (HNDF) were cultured in high glucose Dulbecco's modified eagle medium (DMEM) supplemented with 10% fetal bovine serum (FBS) and 5 ml of 10,000 units of penicillin/streptomycin. Cells were cultured on 10 cm plates with media changes every 2 days. Cells were passaged in 0.25% Trypsin/EDTA after achieving 80% confluency.
To induce myofibroblast transition (MFT), normal human dermal fibroblasts (HNDFs) were split from 1-10 cm plates to 5-96 well plates. Cells were then allowed to grow the next day. The following day, cells were serum starved (1% FBS in DMEM) for 4 hours prior to adding 20 ng/ml of TGF-Beta to all wells of the plate. 1000 μM of Vactosertib (TEW-7197/EW-7197) was added to serve as a positive control and different concentrations of peptides were added to serve as the test articles. The cells were then exposed to the compounds for 5 more days before fixation.
The cells were fixed in paraformaldehyde (PFA) for 10-15 minutes, then washed 2× in PBS. Cells were blocked in 4% BSA for 30 minutes at 23° C. Cells were stained with the primary alpha-smooth muscle actin (aSMA) antibody (1:100) for 1 hour at 23° C. or left out at 4° C. overnight. Cells were rinsed 2× with BSA and then the secondary antibody mix was added: Alexa 488 (1:500) and DAPI (1:1000) for 30 min at 23° C. or 1 hr at 4° C. The plates were covered during staining, then rinsed 2× in BSA and stored in PBS.
Plates were imaged using the Celigo Imaging Cytometer by Nexcelcom. The ratio of fluorescent expression of alpha-smooth muscle actin (aSMA) and DAPI were quantified to determine the amount of aSMA/cell.
The change (normalized to the control) in MFT for each concentration is shown along with the p value for all experiments relative to the control of no peptide.

| Substance | Myofibroblast transition (MFT), aSMA/cell, % change relative to control (100 ng/ml peptide) [%] | MFT, Representative value from experiments (% change relative to control) | Myofibroblast transition (MFT), aSMA/cell, % change relative to control (1000 ng/ml peptide) [%] | Myofibroblast transition (MFT), aSMA/cell, % change relative to control (10 ng/ml peptide) [%] |
| --- | --- | --- | --- | --- |
| ENIKKGLRKRLRKFRNK [MBb37] | −0.1426 | −0.1426 p = (0.032) % |  |  |
| MDQGYPKETVDDFPG [MBBey12] | −0.6665 | −0.6665 p = (0.007) % | −0.4491 |  |
| RNPDSPQ [MBBey14] | −0.3863 | −0.5336 p = (0.012) % | −0.5336 | −0.3781 |
| DCRICS [MBa1] | −0.2174 | −0.2174 p = (0.04) % |  |  |
| EELTRGLRKRLRKFRNK [MBb23] | −0.1203 | −0.1203 p = (0.016) % |  |  |
| AKEVEKH [MBBey4] | −0.4435 | −0.4435 p = (0.007) % |  | −0.2205 |
| RVIWA [MBb4.2] | −0.2113 | −0.2416 p = (0.003) % | −0.2416 |  |
| SDAAVDTSSEITTKDLKEKKEVVEEAENGR [PS-2] | −0.498 | −0.498 p = (0.048) % |  | −0.4315 |
| WVSGL [MBb7] | −0.1848 | −0.2139 p = (0.02) % |  | −0.2139 |
| IAHELGHNLGMSH [MBb25] | −0.1769 | −0.1769 p = (0.008) % |  |  |
| GDIR VR (GDIRVR) [MBWhit33] | −0.3175 | −0.3527 p = (0.032) % | −0.3527 |  |
| IGERCQYRDLKWWELR [MBWhit44] | −0.5753 | −0.702 p = (0.025) % | −0.6111 | −0.702 |
| IRTLDCDADKKDYCLFGRCQYIVELETFRCRCQKGYYGERCVYLEL [EA-2] | −0.3241 | −0.3241 p = (0.014) % | −0.00716 | −0.1343 |
| VYFVIKT [MBBey41] |  | −0.691 p = (0.021) % | −0.691 |  |
| HNGILID [MBBey24] | 0.06835 | −0.05283 p = (0.005) % | 0.2745 | −0.05283 |
| KTHPGG [MBWhit38] | −0.3798 | −0.3798 p = (0.006) % |  |  |
| AVHELGH [MBb24] | −0.1419 | −0.1419 p = (0.003) % |  |  |
| CGGLPGLRKRLRKFRNK [MBb41] | −0.6154 | −0.6154 p = (0.03) % | −0.2177 |  |
| DVLDKRLFWIQYNREG [MBWhit45] | −0.6265 | −0.6471 p = (0.018) % | −0.6136 | −0.6471 |
| RWMAP [MBb74] |  | −0.3048 p = (0.019) % | −0.3048 | 0.04975 |

| Substance | Myofibroblast transition (MFT), aSMA/cell, % change relative to control (100 ng/ml peptide) [%] | MFT, Representative value from experiments (% change relative to control) | Myofibroblast transition (MFT), aSMA/cell, % change relative to control (1000 ng/ml peptide) [%] | Myofibroblast transition (MFT), aSMA/cell, % change relative to control (10 ng/ml peptide) [%] |
| --- | --- | --- | --- | --- |
| HIWA VVPCIR (HIWAVVPCIR) [MBBey3] | −0.1442 | −0.1442 p = (0.037) % |  |  |
| CDADKKDYCLFGRCQYIVELETFRCRCQKGYYGERCVYLEL [EA-1] | −0.2928 | −0.2928 p = (0.016) % | −0.0906 | −0.1401 |
| IGPGLP [MBb76] | −0.03421 | −0.1847 p = (0.009) % | −0.1847 |  |
| ASCRC [MBb5] | −0.409 | −0.6162 p = (0.01) % | −0.6162 | −0.298 |
| LPRDER [MBb3.2] |  | −0.3874 p = (0.003) % | −0.3874 |  |
| QLFEDVIAEP [MBBey 38] |  | −0.3071 p = (0.007) % |  | −0.3071 |
| PHKGLFCHFGSPANRKIGV [MBWhit47] | −0.5896 | −0.6575 p = (0.021) % | −0.5755 | −0.6575 |
| DPCPLCGLRKRLRKFRNK [MBb12] | −0.4465 | −0.4465 p = (0.037) % |  |  |
| NTCHQCGLRKRLRKFRNK [MBb35] | −0.3719 | −0.4001 p = (0.016) % | −0.4001 |  |
| ASLHGNGLRKRLRKFRNK [MBb66] | −0.3446 | −0.3446 p = (0.024) % |  |  |
| GESKGLGLRKRLRKFRNK [MBb36] | −0.1964 | −0.1964 p = (0.002) % |  | −0.07698 |
| VCDEPKDQTVVGPALAAYR [MBWhit46] | −0.6191 | −0.6328 p = (0.031) % | −0.6328 | −0.534 |
| FFLRIHPDGRVDGVR [MBWhit1] | −0.3667 | −0.3667 p = (0.038) % |  |  |
| EEIDA [MBb1.2] | −0.3496 | −0.3496 p = (0.006) % |  |  |
| LKEKKPAKEK [PC-1] |  | −0.4788 p = (0.038) % | −0.4788 |  |
| VAAHELGHSLGMGH [MBm2] | −0.3275 | −0.4235 p = (0.007) % | −0.2058 | −0.4235 |
| EYENPGLRKRLRKFRNK [MBb10] | −0.2694 | −0.2694 p = (0.023) % |  |  |
| IAHELGH [MBb2.2] | −0.1476 | −0.1928 p = (0.021) % | −0.1928 | −0.1592 |
| ITCPHCQ [MBa9] |  | −0.3194 p = (0.02) % | −0.3194 |  |
| VLFEDVIAEP [MBBey 37] |  | −0.2873 p = (0.018) % | −0.2873 |  |
